{
  "source": "patent US20120259123A1",
  "about": "“AMINOPYRIDINE COMPOUND” (UBE INDUSTRIES, LTD., priority 2009, published 2012)",
  "note": "Where a name gives a salt, the structure may show the parent alone.",
  "data": [
    {"target": "T1, human EP2 receptor (Homo sapiens, UniProt P43116)", "T1 construct": "purchased Euroscreen S.A. ES-562-M; host or cells: HEK293 cells", "T1 sequence (P43116 whole entry)": "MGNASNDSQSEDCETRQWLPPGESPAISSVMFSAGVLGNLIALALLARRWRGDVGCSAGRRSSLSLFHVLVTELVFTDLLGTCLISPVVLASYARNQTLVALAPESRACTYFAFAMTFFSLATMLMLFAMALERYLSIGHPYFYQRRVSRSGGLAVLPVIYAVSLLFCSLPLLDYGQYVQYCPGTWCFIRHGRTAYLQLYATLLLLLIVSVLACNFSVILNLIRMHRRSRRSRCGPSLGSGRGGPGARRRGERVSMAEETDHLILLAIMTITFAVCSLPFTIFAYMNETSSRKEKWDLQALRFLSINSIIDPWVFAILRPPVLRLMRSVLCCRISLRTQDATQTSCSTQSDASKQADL", "test": "Measurement of EP2 agonist activity (cAMP amount in cells)", "type": "cell-based", "settings": "HEK 293 cells expressing human EP2 receptor, cAMP increase, 30 minutes", "protocol": "Measurement of EP2 agonist activity was carried out according to the method of Wilson et al. (European Journal of Pharmacology, 501, 49 (2004)). […] On the next day, the medium was replaced with serum-free MEM medium containing 3-isobutyl-1-methylxanthine (final concentration: 500 μM) and after culturing for 30 minutes, a test compound dissolved in dimethylsulfoxide was added and the medium was allowed to stand in a carbon dioxide gas incubator. After 30 minutes, an amount of cAMP in the cells was measured with a cAMP Biotrak EIA System kit (available from GE Healthcare Bioscience).", "units": {"EC50": "nM"}, "values": [
      {"compound": "CC(C)(C)Cc1ccc(CN(Cc2cccc(NCC(=O)O)n2)S(=O)(=O)c2ccccn2)cc1", "note": "[Example 29, {6-[(4-Neopentylbenzyl)(pyridin-2-ylsulfonyl)aminomethyl]pyridin-2-ylamino}acetic acid hydrochloride]", "EC50": 5},
      {"compound": "CCCCC(C)(C)c1ccc(CN(Cc2cccc(NCC(=O)O)n2)S(=O)(=O)c2ccc(F)cc2)s1", "note": "[Example 3, (6-{(4-Fluorobenzenesulfonyl)[5-(1,1-dimethylpentyl)thiophen-2-ylmethyl]aminomethyl}pyridin-2-ylamino)acetic acid]", "EC50": 6},
      {"compound": "CCC(CC)c1ccc(CN(Cc2cccc(NCC(=O)O)n2)S(=O)(=O)c2cccnc2)cc1", "note": "[Example 27, (6-{[4-(1-Ethylpropyl)benzyl](pyridin-3-ylsulfonyl)aminomethyl}pyridin-2-ylamino)-acetic acid]", "EC50": 6.9},
      {"compound": "CC(C)(C)c1ccc(CN(Cc2cccc(NCC(=O)O)n2)S(=O)(=O)c2ccccc2)cc1", "note": "[Example 21, {6-[(Benzenesulfonyl)(4-tert-butylbenzyl)aminomethyl]pyridin-2-ylamino}acetic acid hydrochloride]", "EC50": 4.3},
      {"compound": "CCCC=C(C)c1ccc(CN(Cc2cccc(NCC(=O)O)n2)S(=O)(=O)c2ccccn2)cc1", "note": "[Example 24, (6-{[4-(1-Methyl-1-pentenyl)benzyl](pyridin-2-ylsulfonyl)aminomethyl}pyridin-2-ylamino)acetic acid]", "EC50": 4.5},
      {"compound": "CC1(c2ccc(CN(Cc3cccc(NCC(=O)O)n3)S(=O)(=O)c3cccnc3)cc2)CC1", "note": "[Example 5, (6-{[4-(1-Methylcyclopropyl)benzyl](pyridin-3-ylsulfonyl)aminomethyl}pyridin-2-ylamino)acetic acid hydrochloride]", "EC50": 2.6},
      {"compound": "CC(C)(C)c1ccc(CN(Cc2cccc(NCC(=O)O)n2)S(=O)(=O)c2cccnc2)cc1", "note": "[Example 35, {6-[(4-tert-Butylbenzyl)(pyridin-3-ylsulfonyl)aminomethyl]pyridin-2-ylamino}acetic acid hydrochloride]", "EC50": 2.8},
      {"compound": "CC(C)(C)c1ccc(CN(Cc2cccc(NCC(=O)O)n2)S(=O)(=O)c2ccccn2)cc1", "note": "[Example 23, {6-[(4-tert-Butylbenzyl)(pyridin-2-ylsulfonyl)aminomethyl]pyridin-2-ylamino}acetic acid hydrochloride]", "EC50": 2.7},
      {"compound": "CCCCC(C)(C)c1ccc(CN(Cc2cccc(NCC(=O)O)n2)S(=O)(=O)c2cccc(F)c2)cc1", "note": "[Example 60, (6-{(3-Fluorobenzenesulfonyl)[4-(1,1-dimethylpentyl)benzyl]aminomethyl}pyridin-2-ylamino)acetic acid]", "EC50": 5.5},
      {"compound": "CCC1(c2ccc(CN(Cc3cccc(NCC(=O)O)n3)S(=O)(=O)c3ccccn3)cc2)CC1", "note": "[Example 6, (6-{[4-(1-Ethylcyclopropyl)benzyl](pyridin-2-ylsulfonyl)aminomethyl}pyridin-2-ylamino)acetic acid]", "EC50": 5.4},
      {"compound": "CCC1(c2ccc(CN(Cc3cccc(NCC(=O)O)n3)S(=O)(=O)c3ccc(F)cc3)cc2)CC1", "note": "[Example 14, (6-{[4-(1-Ethylcyclopropyl)benzyl](4-fluorobenzenesulfonyl)aminomethyl}pyridin-2-ylamino)acetic acid]", "EC50": 8}
    ]},
    {"target": "T1, human EP2 receptor", "test": "Measurement of EP2 receptor binding affinity ([3H]PGE2 displacement)", "settings": "read-out: Ki value of EP2 receptor binding affinity", "protocol": "Measurement of EP2 receptor binding affinity was carried out according to the method of Abramovitz et al. (Biochimica et Biophysica Acta, 1483, 285 (2000)). […] The membrane fraction was recovered on glass fiber filter paper (GF/B, available from Whatman PLC) using a cell harvester […], available from Brandel Inc.), and after washing with a buffer solution (10 mM MES-KOH (pH 6.0), 10 mM MgCl2), radioactivity was measured with a liquid scintillation analyzer (2000CA, available from Packard). […] The dissociation constant (Kd value) was calculated by Scatchard analysis.", "units": {"Ki": "nM"}, "values": [
      {"compound": "CCCCC(C)(C)c1ccc(CN(Cc2cccc(NCC(=O)O)n2)S(=O)(=O)c2cccnc2)cc1", "note": "[Example 46, (6-{[4-(1,1-Dimethylpentyl)benzyl](pyridin-3-ylsulfonyl)aminomethyl}pyridin-2-ylamino)acetic acid]", "Ki": 3.3},
      {"compound": "CCCCC(C)(C)c1ccc(CN(Cc2cccc(NCC(=O)O)n2)S(=O)(=O)c2ccc(F)cc2)s1", "note": "[Example 3, (6-{(4-Fluorobenzenesulfonyl)[5-(1,1-dimethylpentyl)thiophen-2-ylmethyl]aminomethyl}pyridin-2-ylamino)acetic acid]", "Ki": 1.8},
      {"compound": "CCCCC(C)(C)c1ccc(CN(Cc2cccc(NCC(=O)O)n2)S(=O)(=O)c2cccs2)cc1", "note": "[Example 48, (6-{[4-(1,1-Dimethylpentyl)benzyl](thiophen-2-ylsulfonyl)aminomethyl}pyridin-2-ylamino)acetic acid]", "Ki": 6.4},
      {"compound": "CCCCC(C)(C)c1ccc(CN(Cc2cccc(NCC(=O)O)n2)S(=O)(=O)c2ccncc2)cc1", "note": "[Example 43, (6-{[4-(1,1-Dimethylpentyl)benzyl](pyridin-4-ylsulfonyl)aminomethyl}pyridin-2-ylamino)acetic acid]", "Ki": 3.6}
    ]}
  ]
}
